Series [1] concerns the target T1, binding of inherent ERAP1 and inherent PHB2/REA (Homo sapiens, UniProt Q99623).
T1 construct: endogenous in cells; host or cells: MCF-7 and KPL-3C breast cancer cells
Nature of the series: Inhibition of ERAP1-PHB2/REA binding in cells, immunoprecipitation-Western blotting. It counts as cell-based. To be noted: MCF-7 and KPL-3C cells; 10 μM peptide; 10 nM E2 24 hours.

Series [2] deals with transcriptional activity of ERα (AP-1). In words: AP-1-luciferase reporter assay in MCF-7 cells. It is filed as cell-based, human. Conditions: 10 nM E2 24 hours. Here is the method:
(§1) FIG. 3-3 is as diagram illustrating the results of the luciferase assay by which the inhibition effect of the ERAP1-peptide was evaluated. MCF-7 cells temporarily transfected with an ERE-luciferase reporter vector (F) or an AP-1-luciferase reporter vector (F) were treated with the ERAP1-peptide, the scramble peptide or the mutant peptide in the concentrations shown in the […]. Then, immediately, the cells were stimulated with 10 nM E2 for 24 hours. TAM indicates the tamoxifen treatment.
(§2) FIG. 4-3 is a diagram illustrating that the ERAP1-peptide promotes nuclear translocation of PHB2. (C) and (D) are figures that show the results of the luciferase assay by which the inhibition effect of the ERAP1-peptide on the ERα transcriptional activity was evaluated. MCF-7 cells temporarily transfected with an ERE-luciferase reporter vector (C) or an AP-1-luciferase reporter vector (D) were treated with the ERAP1-peptide in the concentrations shown in the figure or 10 nM tamoxifen. Then, immediately, the cells were stimulated with 10 nM E2 thr 24 hours.
(§3) For ERE reporter assay, MCF-7 cells were transfected with ERE reporter (SABiosciences, Frederick, Md., USA) in accordance with the instruction of the manufacturer. For AP-1 reporter assay, MCF-7 cells were transfected with AP-1 reporter (mouse IL-11 promoter comprising two tandem AP-1 sites subcloned into PGL2-basic vector), c-fos, c-Jun and pRL-TK as an internal standard. After 16 hours from the transfection, the culture medium was exchanged with an assay culture medium (Opti-MEM, 10% FBS, 0.1 mM NEAA, 0.1 mM Sodium pyruvate and 10 μg/ml insulin) After 24 hours from the transfection, the cells were treated with E2 and/or the ERAP1-peptide or 24 hours. The cells were harvested, and the activities of luciferase and Renilla-luciferase were evaluated using Promega dual luciferase reporter assay (Tokyo, Japan). In consideration of the transfection efficiency, all of the data were standardized by the activity of Renilla-luciferase.
(In general: In a reporter assay the amount or activity of a reporter protein is the signal.)

Series [3] deals with KPL-3C tumor. Nature of the series: Inhibition of tumor proliferation in vivo, KPL-3C orthotopic transplant. Set-up: species or system BALB/c nude mouse. Conditions: for Ser39 phosphorylation of PHB2/REA in the tumor: 14 mg/kg; for antitumor effect (tumor volume): E2 6 μg/day, 2 weeks. The procedure:
FIG. 11-1 is a diagram illustrating that the ERAP1-peptide inhibits tumor proliferation in a mouse orthotopically transplanted with human breast cancer. (A) and (B) show the influence of the ERAP1-peptide on the tumor volume. […] were subcutaneously transplanted into the breast fat body of as BALB/c nude mouse. The treatment test (5 individuals/group) was initiated (day 0) when the volume of the tumor in the absence E2 reached about 50-80 mm^3. The ERAP1-peptide (14, 35 and 70 mg/kg), the scramble peptide (14, 35 and 70 mg/kg) or tamoxifen (4 mg/kg) was administered every day by intraperitoneal injection to a cancerous mouse orthotopically transplanted with KPL-3C tumor. At the same time, E2 (6 μg/day) was administered subcutaneously every day.
FIG. 11-3 is a diagram illustrating that the ERAP1-peptide inhibits tumor proliferation in a mouse orthotopically transplanted with human breast cancer. […] The mouse was euthanatized on day 14, and the tumor was removed, and the expression level of the downstream genes in each tumor was obtained by quantitative RT-PCR.
FIG. 11-4 is a diagram illustrating that the ERAP1-peptide inhibits tumor proliferation in a mouse orthotopically transplanted with human breast cancer.
FIG. 27 is a diagram illustrating the inhibition effect of the ERAP1-peptide on tumor proliferation in a mouse orthotopically transplanted with human breast cancer. […] KPL-3 cells were subcutaneously transplanted into the breast fat body of a BALB/c nude mouse. The treatment test (5 individuals/group) was initiated (day 0) when the volume of the tumor reached about 50-80 mm^3 in the absence of E2. To a cancerous mouse orthotopically transplanted with KPL-3C tumor, the ERAP1-peptide (Peptide: 14 mg/kg) or the ERAP1-scramble peptide (scrPeptide: 14 mg/kg) was administered every day by intraperitoneal injection. At the same time, E2 (6 μg/day) was administered subcutaneously every day. On day 14, the mouse was euthanatized, and the tumor was removed, and phosphorylation of PHB2/REA (S39) in each tumor was evaluated with immunoblotting analysis. […] The tamoxifen-resistant MCF7-cells (Tam-R MCF-7) were subcutaneously transplanted into the breast fat body of a BALB/c nude mouse, and the treatment test (5 individuals/group) was initiated (day 0) when the volume of the tumor reached about 50-80 mm^3 in the presence of tamoxifen (37 ng/day, 1.85 μg/kg). To a cancerous mouse orthotopically transplanted with Tam-R MCF-7 tumor, the ERAP1-peptide (Peptide: 3.5, 7 and 14 mg/kg) or the ERAP1-scramble peptide (scrPeptide: 14 mg/kg) was administered every day by intraperitoneal injection. At the same time, E2 (6 μg/day) was administered subcutaneously every day: Tam-R MCF-7 heterotransplanted tumor at day 21 and the mean tumor volume±SE (n=5) are shown. *P<0.05, **P<0.01, ***P<0.001.
KPL-3C cell suspension (1×10^7 cells/mouse) was mixed with the same amount of Matrigel (BD). This mixture was injected into the breast fat body of 6 weeks old female BALB/c nude mouse (CLEA Japan, Tokyo, Japan). The mouse was kept in a sterile isolated facility with a cycle of 12 hour light period/12 hour dark period, and freely fed with rodent food and water. The tumor was grown over 1 week until the size thereof reached 50 to 80 mm^3 (calculated as ½×(width×length^2)). Then, the mice were randomly divided into nine treatment groups (5 individuals/group): no treatment group, 6 μg/day E2 treatment group, E2+0.28 mg/day ERAP1-peptide treatment group, E2+0.7 mg/day ERAP1-peptide treatment group, E2+1.4 mg/day ERAP1-peptide treatment group, E2+0.28 mg/day of the scramble peptide treatment group, E2+0.7 mg/day of the scramble peptide treatment group, E2+1.4 mg/day of the scramble peptide treatment group, and E2+83 μg/day tamoxifen treatment group. The mouse was treated every day with 6 μg/day E2 solution (100 μl 2.2×10^−4 M) on the neck skin. […]

Series [4] relates to transcriptional activity of ERα (ERE). Nature of the series: ERE-luciferase reporter assay in MCF-7 cells. It counts as cell-based, human. Conditions: 10 nM E2 24 hours. The procedure:
FIG. 3-2 is a diagram illustrating promotion effect of PHB2 nuclear translocation and suppression effect of the transcriptional activation of ER by ERAP1-peptide treatment. (C) illustrates representative images of stained immune cells, showing the localization of the ERAP1-peptide (HA-tagged ERAP1-peptide) and PHB2. MCF-7 cells were treated with 10 μM HA-tagged ERAP1-peptide for 24 hours in the presence or in the absence of 10 nM E2. After the immobilization, the cells were subjected to immunonfluorescent staining using an anti-HA antibody, an anti-PHB2 antibody and DAPI (for discriminating the nucleus). The arrow indicates the nuclear-translocated ERAP1-peptide. […] Then, immediately, the cells were stimulated with 10 nM E2 for 24 hours. TAM indicates the tamoxifen treatment.
as §1, §2, §3

Where [5] appears, read: 14, 35, 70 mg/kg intraperitoneal every day.

We go through two molecules from patent US9725490B2, “ERAP1-derived peptide and use thereof” (TOKUSHIMA UNIVERSITY, priority 2011, dated 2017).

T1 sequence (Q99623 2-299 limits assumed): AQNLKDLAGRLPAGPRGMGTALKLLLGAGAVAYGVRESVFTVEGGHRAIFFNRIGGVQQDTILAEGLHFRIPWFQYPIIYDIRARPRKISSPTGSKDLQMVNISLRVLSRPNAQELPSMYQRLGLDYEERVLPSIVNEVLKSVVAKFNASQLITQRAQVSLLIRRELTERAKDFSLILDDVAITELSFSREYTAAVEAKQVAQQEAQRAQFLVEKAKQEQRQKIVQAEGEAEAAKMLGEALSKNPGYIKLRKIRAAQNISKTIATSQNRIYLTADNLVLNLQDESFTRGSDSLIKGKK

`CSCC[C@H](NC(=O)[C@H](CCC(N)=O)NC(=O)[C@H](CCCNC(=N)N)NC(=O)[C@H](CCCNC(=N)N)NC(=O)[C@H](CCCNC(=N)N)NC(=O)[C@H](CCCNC(=N)N)NC(=O)[C@H](CCCNC(=N)N)NC(=O)[C@H](CCCNC(=N)N)NC(=O)[C@H](CCCNC(=N)N)NC(=O)[C@H](CCCNC(=N)N)NC(=O)[C@H](CCCNC(=N)N)NC(=O)[C@H](CCCNC(=N)N)NC(=O)[C@@H](N)CCCNC(=N)N)C(=O)N[C@@H](CC(C)C)C(=O)N[C@@H](CO)C(=O)N[C@@H](CC(=O)O)C(=O)N[C@@H](CC(C)C)C(=O)N[C@H](C(=O)N[C@@H](CC(C)C)C(=O)N[C@@H](CCC(N)=O)C(=O)N[C@@H](CC(C)C)C(=O)N[C@@H](CCCNC(=N)N)C(=O)N[C@@H](CCC(N)=O)C(=O)N[C@@H](CCCNC(=N)N)C(=O)O)[C@@H](C)O` [ERAP1-peptide]: the “inhibition of the binding of inherent ERAP1 and inherent PHB2/REA” value in series [1] is “remarkably inhibited”. The “transcriptional activity of ERα in AP-1” value in series [2] is recorded as “suppressed the transcriptional activity of ERα”. Further, in series [3] (tumor removed day 14), the “Ser39 phosphorylation of PHB2/REA in the tumor” value was “phosphorylation of Ser39 of PHB21/REA was confirmed”; the “expressions of ERα target genes PS2, cyclin D1, C-Myc, SP-1 in the tumor” value is given as “completely suppressed”; the “phosphorylations of Akt and MAPK in the tumor” value was “suppression for the phosphorylations of the non-genomic activation signal routes, i.e., Akt and MAPK, was also confirmed”. In series [3] (setting [5]), the “change of the body weight” value was “change of the body weight was not recognized” and the “antitumor effect (tumor volume)” value is on record as “the antitumor effect was recognized”. Also, in series [4], the “transcriptional activity of ERα in ERE” value is “suppressed the transcriptional activity of ERα”.
Regarding “DRQLQLSTLQRML (SEQ ID NO: 28) (ERAP1-scramble peptide) [reference compound]”, the “inhibition of the binding of inherent ERAP1 and inherent PHB2/REA” value in series [1] was “not recognized in any of the cells”. Also, in series [2], the “transcriptional activity of ERα in AP-1” value is on record as “no change was recognized”. In addition, in series [3] (tumor removed day 14), the “Ser39 phosphorylation of PHB2/REA in the tumor” value is recorded as “the phosphorylation of PHB2/REA was not recognized” and the “expressions of ERα target genes PS2, cyclin D1, C-Myc, SP-1 in the tumor” value is “suppression for the expression was not recognized”. Moreover, in series [3] (setting [5]), the “antitumor effect (tumor volume)” value is recorded as “significant tumor suppression effect was not recognized in any of the doses”. For the same molecule, the “transcriptional activity of ERα in ERE” value in series [4] is on record as “no change was recognized”.
